Measurements reported in ChEMBL document CHEMBL6103629 (J Med Chem, 2025).

Columns and labels:
[1] = molecular target: Serine/threonine-protein kinase mTOR (Homo sapiens, UniProt P42345); experiment: Inhibition of mTOR (unknown origin) preincubated for 15 mins and measured after 60 mins by Z-LYTE screening
[2] = Permeability across apical to basolateral side in human MDCK-MDR1 cells at 0.1 to 10 uM incubated for 120 mins by LC-MS/MS analysis; type: ADME, cell-based, Canis lupus familiaris; conditions: dog, mdck-mdr1, 2 h, dose 0.1-10 µM
[3] = Permeability across basolateral to apical side in human Caco-2 cells at 0.1 to 10 uM incubated for 120 mins by LC-MS/MS analysis; type: ADME, cell-based; conditions: caco-2, 2 h, dose 0.1-10 µM
[4] = Plasma protein binding in Sprague-Dawley rat at 1 uM incubated for 5 hrs in HTD dialysis in the presence of verapamil by LC-MS/MS analysis relative to control; type: ADME, cell-free; conditions: read-out: PPB (converted)
[5] = Plasma protein binding in human at 1 uM incubated for 5 hrs in HTD dialysis in the presence of verapamil by LC-MS/MS analysis relative to control; type: ADME, cell-free; conditions: read-out: PPB (converted)
[6] = Drug metabolism in Beagle dog plasma by LC-MS/MS analysis; type: ADME, cell-free, Canis lupus familiaris; conditions: 5 h, 1 µM
[7] = Stability in Beagle dog plasma assessed as half life by LC-MS/MS analysis; type: ADME, cell-free, Canis lupus familiaris
[8] = molecular target: Cytochrome P450 2C8 (Homo sapiens, UniProt P10632); experiment: Inhibition of CYP2C8 in human liver microsomes in the presence of NADPH incubated for 60 mins by LC-MS/MS analysis; type: ADME, Microsome
[9] = Induction of CYP1A2 mRNA expression in human primary hepatocyte isolated from YND donor at 0.1 to 10 uM incubated for 72 hrs by real-time PCR analysis; type: ADME, cell-based; conditions: hepatocytes, dose 0.1-10 µM
[10] = Induction of CYP2B6 mRNA expression in human primary hepatocyte isolated from RAS donor at 0.1 to 10 uM incubated for 72 hrs by real-time PCR analysis; type: ADME, cell-based; conditions: hepatocytes, dose 0.1-10 µM
[11] = Drug distribution in Sprague-Dawley rat brain at 5 mg/kg, IG administrated as single dose measured after 0.5 hrs by LC-MS/MS analysis; type: ADME, organism-based; conditions: po, read-out: Ct
[12] = test system: LoVo; experiment: Antitumor activity against human LoVo cells xenografted in female Balb/c nude mouse assessed as tumor growth inhibition at 40 mg/kg QD, po measured every 3 days for 25 days relative to control; type: functional; conditions: 600 h, time 25 day, read-out: TGI
[13] = test system: LoVo; experiment: Antitumor activity against human LoVo cells xenografted in female Balb/c nude mouse assessed as tumor growth inhibition at 10 mg/kg QD, po measured every 3 days for 25 days relative to control; type: functional; conditions: 600 h, time 25 day, read-out: TGI
[14] = Toxicity in female Balb/c nude mouse xenografted with human NCI-H1703 cells assessed as body weight at 40 mg/kg QD, po measured every 3 days for 25 days at 10 to 60 mg/kg QD, po measured every 3 days for 28 days; type: organism-based; conditions: in vivo, 672 h, time 28 day
[15] = test system: NCI-H1703; experiment: Synergistic antitumor activity against human NCI-H1703 cells xenografted in female Balb/c nude mouse assessed as tumor growth inhibition co administered with Gemcitabine at 40 mg/kg QD, po administered as 3 days on and 4 days off schedule for 4 weeks relative to control; type: functional; conditions: NCI-H1703, 672 h, time 28 day, read-out: TGI

Sequence of Cytochrome P450 2C8 (P10632 whole entry): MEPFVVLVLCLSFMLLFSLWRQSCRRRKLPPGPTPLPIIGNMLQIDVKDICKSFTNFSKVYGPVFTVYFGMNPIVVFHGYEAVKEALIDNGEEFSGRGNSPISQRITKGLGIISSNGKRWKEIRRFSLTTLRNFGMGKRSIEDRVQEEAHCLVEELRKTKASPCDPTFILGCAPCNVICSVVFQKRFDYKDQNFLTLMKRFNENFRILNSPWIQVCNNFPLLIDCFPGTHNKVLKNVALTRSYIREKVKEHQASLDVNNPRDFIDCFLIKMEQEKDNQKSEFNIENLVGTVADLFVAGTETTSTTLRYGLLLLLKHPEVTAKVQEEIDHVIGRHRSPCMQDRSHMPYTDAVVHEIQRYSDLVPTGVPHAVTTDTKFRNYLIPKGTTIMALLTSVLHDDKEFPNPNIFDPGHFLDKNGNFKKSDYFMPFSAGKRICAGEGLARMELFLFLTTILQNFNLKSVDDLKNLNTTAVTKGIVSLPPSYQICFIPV

IC50 [1]: 1.82 µM
permeability [2]: Permeable
permeability [3]: Permeable
fraction unbound at 5 h, 1 µM [4]: 0.136
fraction unbound at 5 h, 1 µM [5]: 0.075
Drug metabolism [6]: metabolite_notdetected
half-life [7]: > 2 h
IC50 [8]: 37.1 µM
Activity [9]: Not_active
Activity [10]: Active
concentration at 0.5 h [11]: 4.47 ng/g
Compound: Cc1nn(-c2cccnc2)c(C)c1-c1cc(N2CC3CCC(C2)O3)nc2c(-c3ccn[nH]3)cnn12.O=C(O)/C=C/C(=O)O
inhibition in vivo at 40 mg/kg [12]: 42.6%
inhibition in vivo at 10 mg/kg [13]: 13.9%
Activity [14]: Toxic
inhibition in vivo at 40 mg/kg [15]: 92.9%
